Results as given in the supplement of paper PMC10307832.

Experiments:
Assay in all cases: relative viability (nuclei count vs DMSO), 5 days (fraction); higher = more cells survive
[1] = compound: CC[C@@H]1C(=O)N(C)c2cnc(Nc3ccc(C(=O)NC4CCN(C)CC4)cc3OC)nc2N1C1CCCC1 [BI-2536] + CC(C)C[C@H](NC(=O)[C@H](Cc1ccccc1)NC(=O)c1cnccn1)B(O)O [Bortezomib] (partner 0.002 µM)
Outline: (§1)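 Each reported value is a median over duplicate plates. It expresses relative viability: treated-well nuclei count divided by vehicle-well nuclei count. Lung cancer cell lines in 1536-well plates were dosed by pin tool a day after seeding, alone with one drug or with a fixed anchor-drug dose plus five library-drug doses (not always all listed) in √10 steps, and nuclei were counted after 5 days.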

[2] = compound: CC[C@@H]1C(=O)N(C)c2cnc(Nc3ccc(C(=O)NC4CCN(C)CC4)cc3OC)nc2N1C1CCCC1 [BI-2536] + C[C@]1(O)C[C@@H](c2nc(-c3ccc4ccc(-c5ccccc5)nc4c3)c3c(N)nccn32)C1 [Linsitinib] (partner 1 µM)
Outline: as §1

[3] = compound: CC[C@@H]1C(=O)N(C)c2cnc(Nc3ccc(C(=O)NC4CCN(C)CC4)cc3OC)nc2N1C1CCCC1 [BI-2536] + COc1cc2c(Oc3ccc(NC(=O)C4(C(=O)Nc5ccc(F)cc5)CC4)cc3F)ccnc2cc1OCCCN1CCOCC1 [Foretinib] (partner 0.25 µM)
Outline: as §1

[4] = compound: CC1CC(=O)N(C2=CN=C(N=C2N1C3CCCC3)NC4=C(C=C(C=C4)C(=O)NC5CCN(CC5)C)OC)C [NPK76-II-72-1] + Cc1cc(Nc2cc(N3CCN(C)CC3)nc(Sc3ccc(NC(=O)C4CC4)cc3)n2)n[nH]1 [Tozasertib] (partner 0.1 µM)
Outline: as §1

Row | Cell Line | relative viability ([1]; first compound 0.01 µM) | relative viability ([1]; first compound 0.03162 µM) | relative viability ([1]; first compound 0.1 µM) | relative viability ([1]; first compound 0.3162 µM) | relative viability ([1]; first compound 1 µM) | relative viability ([2]; first compound 0.01 µM) | relative viability ([2]; first compound 0.03162 µM) | relative viability ([2]; first compound 0.1 µM) | relative viability ([2]; first compound 0.3162 µM) | relative viability ([2]; first compound 1 µM) | relative viability ([3]; first compound 0.01 µM) | relative viability ([3]; first compound 0.03162 µM) | relative viability ([3]; first compound 0.1 µM) | relative viability ([3]; first compound 0.3162 µM) | relative viability ([3]; first compound 1 µM) | relative viability ([4]; first compound 0.01 µM) | relative viability ([4]; first compound 0.03162 µM) | relative viability ([4]; first compound 0.1 µM) | relative viability ([4]; first compound 0.3162 µM) | relative viability ([4]; first compound 1 µM)
1 | NCI-H1792 | 0.985 | 1 | 1.06 | 0.716 | 0.147 | 0.585 | 0.634 | 0.495 | 0.444 | 0.131 | – | – | – | – | – | – | – | – | – | –
2 | SK-MES-1 | – | – | – | – | – | 1.08 | 1.01 | 0.979 | 1.02 | 0.176 | 0.926 | 0.778 | 0.927 | 0.204 | 0.168 | 0.938 | 0.999 | 0.876 | 0.937 | 0.922
3 | NCI-H1650 | 0.198 | 0.195 | 0.18 | 0.18 | 0.171 | – | – | – | – | – | 1.16 | 1.14 | 0.484 | 0.135 | 0.115 | 0.397 | 0.444 | 0.429 | 0.501 | 0.386
4 | EBC-1 | 0.477 | 0.46 | 0.222 | 0.217 | 0.175 | 0.966 | 0.797 | 0.863 | 0.172 | 0.154 | 0.0994 | 0.0943 | 0.0905 | 0.0859 | 0.0908 | – | – | – | – | –
5 | NCI-H1623 | – | – | – | – | – | – | – | – | – | – | 0.912 | 0.864 | 0.83 | 0.345 | 0.321 | 0.467 | 0.434 | 0.353 | 0.341 | 0.467
6 | NCI-H2342 | – | – | – | – | – | – | – | – | – | – | 1.01 | 0.973 | 0.976 | 0.633 | 0.357 | 0.621 | 0.467 | 0.498 | 0.437 | 0.537
7 | SW 900 | – | – | – | – | – | – | – | – | – | – | 0.775 | 0.8 | 0.983 | 0.2 | 0.138 | 0.675 | 0.524 | 0.482 | 0.536 | 0.644
8 | NCI-H1563 | 0.935 | 0.802 | 0.842 | 0.563 | 0.683 | 1.17 | 1.19 | 1.22 | 0.73 | 0.766 | 0.905 | 1.06 | 0.923 | 0.67 | 0.552 | – | – | – | – | –
9 | NCI-H1793 | – | – | – | – | – | 0.939 | 0.85 | 1.03 | 0.211 | 0.205 | 0.585 | 0.364 | 0.202 | 0.164 | 0.173 | 0.34 | 0.377 | 0.36 | 0.263 | 0.369
10 | NCI-H1299 | 0.985 | 1.05 | 0.981 | 0.419 | 0.351 | 1 | 0.971 | 0.974 | 0.245 | 0.363 | 1.15 | 1.09 | 0.773 | 0.308 | 0.242 | – | – | – | – | –
11 | NCI-H358 | – | – | – | – | – | 0.723 | 0.676 | 0.402 | 0.161 | 0.137 | 0.623 | 0.598 | 0.08 | 0.101 | 0.0984 | 0.108 | 0.11 | 0.0907 | – | 0.115
12 | NCI-H1395 | – | – | – | – | – | 0.928 | 0.785 | 0.633 | 0.544 | 0.474 | 0.911 | 1.1 | 0.691 | 0.339 | 0.327 | 0.726 | 0.822 | 0.72 | 0.767 | 0.759
13 | NCI-H522 | – | – | – | – | – | – | – | – | – | – | – | – | – | – | – | 0.617 | 0.443 | 0.562 | 0.55 | 0.54
14 | A549 | – | – | – | – | – | 0.582 | 0.536 | 0.63 | 0.294 | 0.0483 | 0.962 | 0.901 | 0.427 | 0.0288 | 0.0231 | – | – | – | – | –
15 | NCI-H1944 | – | – | – | – | – | 1.35 | 1.27 | 1.17 | 1.02 | 0.283 | 0.822 | 1.09 | 0.907 | 0.134 | 0.178 | 0.255 | 0.283 | 0.245 | 0.228 | 0.257
16 | NCI-H1648 | – | – | – | – | – | – | – | – | – | – | – | – | – | – | – | 0.523 | 0.431 | – | – | 0.474
17 | IA-LM | 0.772 | 0.623 | 0.0686 | 0.0705 | 0.0718 | 0.641 | 0.55 | 0.774 | 0.104 | 0.164 | 1.24 | 1.14 | 0.518 | 0.0587 | 0.0439 | – | – | – | – | –
18 | ChaGo-K-1 | 0.905 | 0.852 | 0.469 | 0.301 | 0.281 | – | – | – | – | – | 0.851 | 0.972 | 0.687 | 0.164 | 0.217 | 0.239 | 0.256 | 0.238 | 0.225 | 0.231
19 | LK-2 | – | – | – | – | – | 0.528 | 0.504 | 0.506 | 0.12 | 0.144 | 1.32 | 0.923 | 0.861 | 0.18 | 0.162 | 0.159 | 0.195 | 0.183 | 0.187 | 0.213
20 | HCC-44 | 0.905 | 0.885 | 0.297 | 0.14 | 0.0751 | 0.672 | 0.72 | 0.602 | 0.12 | 0.0939 | – | – | – | – | – | 0.875 | 1.16 | 0.962 | 0.795 | 1.04
